Measured values from patent US20220378791A1, “JAK1 INHIBITORS FOR THE TREATMENT OF MYELODYSPLASTIC SYNDROMES” (Incyte Corporation, priority 2014, published 2022).

Experiments:
[1] = target: T1, human JAK1 (a.a. 837-1142) (Homo sapiens, UniProt P23458); assay: In vitro JAK kinase assay (HTRF), JAK1; assay type: biochemical; details: 1 mM ATP
T1 construct: human JAK1 (a.a. 837-1142); His tag (N); made in house; host or cells: insect cells (baculovirus)
Procedure: Compounds herein were tested for inhibitory activity of JAK targets according to the following in vitro assay described in Park et al., Analytical Biochemistry 1999, 269, 94-104. The catalytic domains of human JAK1 (a.a. 837-1142), JAK2 (a.a. 828-1132) and JAK3 (a.a. 781-1124) with an N-terminal His tag were expressed using baculovirus in insect cells and purified. The catalytic activity of JAK1, JAK2 or JAK3 was assayed by measuring the phosphorylation of a biotinylated peptide. The phosphorylated peptide was detected by homogenous time resolved fluorescence (HTRF). […] Reactions were carried out at room temperature for 1 hour and then stopped with 20 μL 45 mM EDTA, 300 nM SA-APC, 6 nM Eu-Py20 in assay buffer (Perkin Elmer, Boston, Mass.). Binding to the Europium labeled antibody took place for 40 minutes and HTRF signal was measured on a Fusion plate reader (Perkin Elmer, Boston, Mass.).

[2] = target: T2, human JAK2 (a.a. 828-1132) (Homo sapiens, UniProt O60674); assay: In vitro JAK kinase assay (HTRF), JAK2; assay type: biochemical; details: IC50 ratio, selectivity for JAK1 over JAK2, 1 mM ATP
T2 construct: JAK2 (a.a. 828-1132); His tag (N); made in house; host or cells: insect cells (baculovirus)
T2 sequence (O60674 828-1132): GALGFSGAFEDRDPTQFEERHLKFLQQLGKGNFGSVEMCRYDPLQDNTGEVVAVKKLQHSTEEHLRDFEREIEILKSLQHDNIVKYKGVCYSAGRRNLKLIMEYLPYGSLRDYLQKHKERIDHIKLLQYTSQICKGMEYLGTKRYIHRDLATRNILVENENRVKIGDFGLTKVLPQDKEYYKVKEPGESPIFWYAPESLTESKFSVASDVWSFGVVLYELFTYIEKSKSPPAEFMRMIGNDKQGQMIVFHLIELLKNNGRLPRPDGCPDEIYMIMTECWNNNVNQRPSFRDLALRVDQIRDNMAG
Procedure: Compounds herein were tested for inhibitory activity of JAK targets according to the following in vitro assay described in Park et al., Analytical Biochemistry 1999, 269, 94-104. The catalytic domains of human JAK1 (a.a. 837-1142), JAK2 (a.a. 828-1132) and JAK3 (a.a. 781-1124) with an N-terminal His tag were expressed using baculovirus in insect cells and purified. The catalytic activity of JAK1, JAK2 or JAK3 was assayed by measuring the phosphorylation of a biotinylated peptide. The phosphorylated peptide was detected by homogenous time resolved fluorescence (HTRF). […] Reactions were carried out at room temperature for 1 hour and then stopped with 20 μL 45 mM EDTA, 300 nM SA-APC, 6 nM Eu-Py20 in assay buffer (Perkin Elmer, Boston, Mass.). Binding to the Europium labeled antibody took place for 40 minutes and HTRF signal was measured on a Fusion plate reader (Perkin Elmer, Boston, Mass.). See Table 2 for data for compounds of the examples as tested by the assay of Example A at 1 mM ATP.

T1 sequence (P23458 849-1154): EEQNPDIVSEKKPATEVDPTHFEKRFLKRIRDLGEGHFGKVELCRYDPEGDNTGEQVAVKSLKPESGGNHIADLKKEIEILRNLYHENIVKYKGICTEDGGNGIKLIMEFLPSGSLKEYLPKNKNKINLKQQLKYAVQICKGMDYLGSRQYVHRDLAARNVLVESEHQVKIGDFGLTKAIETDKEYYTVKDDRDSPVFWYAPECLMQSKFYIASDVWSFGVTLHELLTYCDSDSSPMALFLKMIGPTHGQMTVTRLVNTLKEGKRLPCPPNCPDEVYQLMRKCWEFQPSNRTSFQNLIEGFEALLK

IC50 [1] [nM]	JAK2/JAK1 [2]	SMILES
< 10	>10	N#CCC(C1CCN(c2cccc(Cl)n2)C1)n1cc(-c2ncnc3[nH]ccc23)cn1 (single isomer, unassigned) [Example 1, 3-[1-(6-chloropyridin-2-yl)pyrrolidin-3-yl]-3-[4-(7H-pyrrolo[2,3-d]pyrimidin-4-yl)-1H-pyrazol-1-yl]propanenitrile]
< 10	>10	N#CCC(C1CCN(c2nc3cccnc3o2)C1)n1cc(-c2ncnc3[nH]ccc23)cn1 (single isomer, unassigned) [Example 2, 3-(1-[1,3]oxazolo[5,4-b]pyridin-2-ylpyrrolidin-3-yl)-3-[4-(7H-pyrrolo[2,3-d]pyrimidin-4-yl)-1H-pyrazol-1-yl]propanenitrile]
< 10	>10	N#CCC(CN1CCN(C(=O)c2ccc(C#N)cc2F)CC1)n1cc(-c2ncnc3[nH]ccc23)cn1 (single isomer, unassigned) [Example 3, 4-[(4-{3-cyano-2-[4-(7H-pyrrolo[2,3-d]pyrimidin-4-yl)-1H-pyrazol-1-yl]propyl}piperazin-1-yl)carbonyl]-3-fluorobenzonitrile]
< 10	>10	N#CCC(CN1CCN(C(=O)c2ccc(C#N)cc2F)CC1)n1ccc(-c2ncnc3[nH]ccc23)c1 (single isomer, unassigned) [Example 4, 4-[(4-{3-cyano-2-[3-(7H-pyrrolo[2,3-d]pyrimidin-4-yl)-1H-pyrrol-1-yl]propyl}piperazin-1-yl)carbonyl]-3-fluorobenzonitrile]
< 10	>10	N#CCC1(n2cc(-c3ncnc4[nH]ccc34)cn2)CN(C2CCN(C(=O)c3ccnc(C(F)(F)F)c3F)CC2)C1 [Example 5, {1-{1-[3-Fluoro-2-(trifluoromethyl)isonicotinoyl]piperidin-4-yl}-3-[4-(7H-pyrrolo[2,3-d]pyrimidin-4-yl)-1H-pyrazol-1-yl]azetidin-3-yl}acetonitrile]
< 10	>10	N#CCC1(n2cc(-c3ncnc4[nH]ccc34)cn2)CN(C2CCN(C(=O)Nc3ccc(F)cc3C(F)(F)F)CC2)C1 [Example 6, 4-{3-(Cyanomethyl)-3-[4-(7H-pyrrolo[2,3-d]pyrimidin-4-yl)-1H-pyrazol-1-yl]azetidin-1-yl}-N-[4-fluoro-2-(trifluoromethyl)phenyl]piperidine-1-carboxamide]
< 10	>10	N#CCC1(n2cc(-c3ncnc4[nH]ccc34)cn2)CN(C2CCN(C(=O)c3ccnc(C(F)(F)F)n3)CC2)C1 [Example 7, [3-[4-(7H-pyrrolo[2,3-d]pyrimidin-4-yl)-1H-pyrazol-1-yl]-1-(1-{[2-(trifluoromethyl)pyrimidin-4-yl]carbonyl}piperidin-4-yl)azetidin-3-yl]acetonitrile]
< 10	>10	N#CC[C@]1(n2cc(-c3ncnc4[nH]ccc34)cn2)C[C@H](N2CCN(C(=O)c3ccnc(C(F)(F)F)n3)CC2)C1 [Example 8, [trans-1-[4-(7H-pyrrolo[2,3-d]pyrimidin-4-yl)-1H-pyrazol-1-yl]-3-(4-{[2-(trifluoromethyl)pyrimidin-4-yl]carbonyl}piperazin-1-yl)cyclobutyl]acetonitrile]
< 10	>10	N#CC[C@]1(n2cc(-c3ncnc4[nH]ccc34)cn2)C[C@H](N2CCC(Oc3cc(CN4CC(O)C4)cc(C(F)(F)F)n3)CC2)C1 [Example 9, {trans-3-(4-{[4-[(3-hydroxyazetidin-1-yl)methyl]-6-(trifluoromethyl)pyridin-2-yl]oxy}piperidin-1-yl)-1-[4-(7H-pyrrolo[2,3-d]pyrimidin-4-yl)-1H-pyrazol-1-yl]cyclobutyl}acetonitrile]
< 10	>10	N#CC[C@]1(n2cc(-c3ncnc4[nH]ccc34)cn2)C[C@H](N2CCC(Oc3cc(CN4CCC[C@H]4CO)cc(C(F)(F)F)n3)CC2)C1 [Example 10, {trans-3-(4-{[4-{[(2S)-2-(hydroxymethyl)pyrrolidin-1-yl]methyl}-6-(trifluoromethyl)pyridin-2-yl]oxy}piperidin-1-yl)-1-[4-(7H-pyrrolo[2,3-d]pyrimidin-4-yl)-1H-pyrazol-1-yl]cyclobutyl}acetonitrile]
< 10	>10	N#CC[C@]1(n2cc(-c3ncnc4[nH]ccc34)cn2)C[C@H](N2CCC(Oc3cc(CN4CCC[C@@H]4CO)cc(C(F)(F)F)n3)CC2)C1 [Example 11, {trans-3-(4-{[4-{[(2R)-2-(hydroxymethyl)pyrrolidin-1-yl]methyl}-6-(trifluoromethyl)pyridin-2-yl]oxy}piperidin-1-yl)-1-[4-(7H-pyrrolo[2,3-d]pyrimidin-4-yl)-1H-pyrazol-1-yl]cyclobutyl}acetonitrile]
< 10	>10	C[C@H](NC(=O)c1cc(F)c(N2CC(CC#N)(n3cc(-c4ncnc5[nH]ccc45)cn3)C2)cc1F)C(F)(F)F [Example 14, 4-{3-(Cyanomethyl)-3-[4-(7H-pyrrolo[2,3-d]pyrimidin-4-yl)-1H-pyrazol-1-yl]azetidin-1-yl}-2,5-difluoro-N-[(1S)-2,2,2-trifluoro-1-methylethyl]benzamide]
< 10	>10	N#CCC1(n2cc(-c3ncnc4[nH]ccc34)cn2)CN([C@H]2CC[C@@H](Oc3cc(CCO)nc(C(F)(F)F)n3)CC2)C1 [Example 16, {1-(cis-4-{[6-(2-hydroxyethyl)-2-(trifluoromethyl)pyrimidin-4-yl]oxy}cyclohexyl)-3-[4-(7H-pyrrolo[2,3-d]pyrimidin-4-yl)-1H-pyrazol-1-yl]azetidin-3-yl}acetonitrile]
< 10	>10	CCNCc1cc(O[C@H]2CC[C@@H](N3CC(CC#N)(n4cc(-c5ncnc6[nH]ccc56)cn4)C3)CC2)nc(C(F)(F)F)c1 [Example 17, {1-(cis-4-{[4-[(ethylamino)methyl]-6-(trifluoromethyl)pyridin-2-yl]oxy}cyclohexyl)-3-[4-(7H-pyrrolo[2,3-d]pyrimidin-4-yl)-1H-pyrazol-1-yl]azetidin-3-yl}acetonitrile]
< 10	>10	CC(C)(O)c1cc(O[C@H]2CC[C@@H](N3CC(CC#N)(n4cc(-c5ncnc6[nH]ccc56)cn4)C3)CC2)nc(C(F)(F)F)c1 [Example 18, {1-(cis-4-{[4-(1-hydroxy-1-methylethyl)-6-(trifluoromethyl)pyridin-2-yl]oxy}cyclohexyl)-3-[4-(7H-pyrrolo[2,3-d]pyrimidin-4-yl)-1H-pyrazol-1-yl]azetidin-3-yl}acetonitrile]
< 10	>10	N#CCC1(n2cc(-c3ncnc4[nH]ccc34)cn2)CN([C@H]2CC[C@@H](Oc3cc(CN4CC[C@@H](O)C4)cc(C(F)(F)F)n3)CC2)C1 [Example 19, {1-(cis-4-{[4-{[(3R)-3-hydroxypyrrolidin-1-yl]methyl}-6-(trifluoromethyl)pyridin-2-yl]oxy}cyclohexyl)-3-[4-(7H-pyrrolo[2,3-d]pyrimidin-4-yl)-1H-pyrazol-1-yl]azetidin-3-yl}acetonitrile]
